The results in this text go back to patent US11542304B2, “Multimeric bicyclic peptide ligands” (BicycleTx Limited, priority 2018, dated 2023).

The target in this data set is CD137 (Homo sapiens, UniProt Q07011). Put plainly: CD137 Promega reporter cell activity assay (NF-κB luciferase in Jurkat cells). The conditions noted are these: for Average Fold EC50 Improvement relative to CD137L: Average EC50 for CD137L = 14.2 nM; for Average Relative Fold Induction relative to CD137L: Average fold induction for CD137L = 4.0.
CD137, sequence (Q07011 24-255): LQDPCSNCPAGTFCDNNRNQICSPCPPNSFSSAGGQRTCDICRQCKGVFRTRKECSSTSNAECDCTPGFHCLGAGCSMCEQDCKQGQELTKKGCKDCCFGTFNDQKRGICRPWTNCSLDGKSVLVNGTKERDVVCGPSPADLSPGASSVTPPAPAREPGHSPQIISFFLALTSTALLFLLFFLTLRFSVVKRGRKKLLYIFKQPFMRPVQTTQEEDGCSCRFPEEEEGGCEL

For the compound `CCCC[C@@H]1NC(=O)[C@H](Cc2ccc(O)cc2)NC(=O)[C@@H]2CCCN2C(=O)[C@H](CC(=O)O)NC(=O)[C@H](C)NC(=O)[C@H](Cc2ccccc2)NC(=O)[C@@H]2CSCCC(=O)N3CN(CN(C3)C(=O)CCSC[C@@H](C(=O)N[C@@H](C)C(N)=O)NC1=O)C(=O)CCSC[C@H](NC(=O)[C@H](C)NC(C)=O)C(=O)N[C@@H]([C@@H](C)CC)C(=O)N[C@@H](CCC(=O)O)C(=O)N[C@@H](CCC(=O)O)C(=O)NCC(=O)N[C@@H](CCCCNC(=O)CCc1cn(CCOCCOCCOCCOCCOCCOCCOCCOCCOCCOCCNC(=O)CCOCC(COCCC(=O)NCCOCCOCCOCCOCCOCCOCCOCCOCCOCCOCCn3cc(CCC(=O)NCCCC[C@@H]4NC(=O)CNC(=O)[C@H](CCC(=O)O)NC(=O)[C@H](CCC(=O)O)NC(=O)[C@H]([C@@H](C)CC)NC(=O)[C@@H](NC(=O)[C@H](C)NC(C)=O)CSCCC(=O)N5CN6CN(C5)C(=O)CCSC[C@H](NC(=O)[C@H](Cc5ccc(O)cc5)NC4=O)C(=O)N[C@@H](Cc4ccccc4)C(=O)N[C@@H](C)C(=O)N[C@@H](CC(=O)O)C(=O)N4CCC[C@H]4C(=O)N[C@@H](Cc4ccc(O)cc4)C(=O)N[C@@H](CCCC)C(=O)N[C@H](C(=O)N[C@@H](C)C(N)=O)CSCCC6=O)nn3)(COCCC(=O)NCCOCCOCCOCCOCCOCCOCCOCCOCCOCCOCCn3cc(CCC(=O)NCCCC[C@@H]4NC(=O)CNC(=O)[C@H](CCC(=O)O)NC(=O)[C@H](CCC(=O)O)NC(=O)[C@H]([C@@H](C)CC)NC(=O)[C@@H](NC(=O)[C@H](C)NC(C)=O)CSCCC(=O)N5CN6CN(C5)C(=O)CCSC[C@H](NC(=O)[C@H](Cc5ccc(O)cc5)NC4=O)C(=O)N[C@@H](Cc4ccccc4)C(=O)N[C@@H](C)C(=O)N[C@@H](CC(=O)O)C(=O)N4CCC[C@H]4C(=O)N[C@@H](Cc4ccc(O)cc4)C(=O)N[C@@H](CCCC)C(=O)N[C@H](C(=O)N[C@@H](C)C(N)=O)CSCCC6=O)nn3)COCCC(=O)NCCOCCOCCOCCOCCOCCOCCOCCOCCOCCOCCn3cc(CCC(=O)NCCCC[C@@H]4NC(=O)CNC(=O)[C@H](CCC(=O)O)NC(=O)[C@H](CCC(=O)O)NC(=O)[C@H]([C@@H](C)CC)NC(=O)[C@@H](NC(=O)[C@H](C)NC(C)=O)CSCCC(=O)N5CN6CN(C5)C(=O)CCSC[C@H](NC(=O)[C@H](Cc5ccc(O)cc5)NC4=O)C(=O)N[C@@H](Cc4ccccc4)C(=O)N[C@@H](C)C(=O)N[C@@H](CC(=O)O)C(=O)N4CCC[C@H]4C(=O)N[C@@H](Cc4ccc(O)cc4)C(=O)N[C@@H](CCCC)C(=O)N[C@H](C(=O)N[C@@H](C)C(N)=O)CSCCC6=O)nn3)nn1)C(=O)N[C@@H](Cc1ccc(O)cc1)C(=O)N2` [BCY7845], the “Average Fold EC50 Improvement relative to CD137L” value amounted to 17.78 and the “Average Relative Fold Induction relative to CD137L” value is listed as 1.54. Besides, the “CD137 agonism / activation in reporter cells (in words)” value (FIGS. 1 to 3 and 15) is “high levels of CD137 agonism”. Further, the Average fold induction entry (reference substance of Table 4A / 4B) is “**Average fold induction for BCY7845 = 6.3”.
Regarding `CCCC[C@@H]1NC(=O)[C@H](Cc2ccc(O)cc2)NC(=O)[C@@H]2CCCN2C(=O)[C@H](CC(=O)O)NC(=O)[C@H](C)NC(=O)[C@H](Cc2ccccc2)NC(=O)[C@@H]2CSCCC(=O)N3CN(CN(C3)C(=O)CCSC[C@@H](C(=O)N[C@@H](C)C(N)=O)NC1=O)C(=O)CCSC[C@H](NC(=O)[C@H](C)NC(C)=O)C(=O)N[C@@H]([C@@H](C)CC)C(=O)N[C@@H](CCC(=O)O)C(=O)N[C@@H](CCC(=O)O)C(=O)N[C@H](CCCCNC(=O)OCC1C3CCc4nnn(CCOCCOCCOCCOCCOCCOCCOCCOCCOCCOCCNC(=O)CCOCCN(CCOCCC(=O)NCCOCCOCCOCCOCCOCCOCCOCCOCCOCCOCCn5nnc6c5CCC5C(CC6)C5COC(=O)NCCCC[C@H]5NC(=O)[C@H](CCC(=O)O)NC(=O)[C@H](CCC(=O)O)NC(=O)[C@H]([C@@H](C)CC)NC(=O)[C@@H](NC(=O)[C@H](C)NC(C)=O)CSCCC(=O)N6CN7CN(C6)C(=O)CCSC[C@H](NC(=O)[C@H](Cc6ccc(O)cc6)NC(=O)[C@H](CCC(N)=O)NC5=O)C(=O)N[C@@H](Cc5ccccc5)C(=O)N[C@@H](C)C(=O)N[C@@H](CC(=O)O)C(=O)N5CCC[C@H]5C(=O)N[C@@H](Cc5ccc(O)cc5)C(=O)N[C@@H](CCCC)C(=O)N[C@H](C(=O)N[C@@H](C)C(N)=O)CSCCC7=O)CCOCCC(=O)NCCOCCOCCOCCOCCOCCOCCOCCOCCOCCOCCn5nnc6c5CCC5C(CC6)C5COC(=O)NCCCC[C@H]5NC(=O)[C@H](CCC(=O)O)NC(=O)[C@H](CCC(=O)O)NC(=O)[C@H]([C@@H](C)CC)NC(=O)[C@@H](NC(=O)[C@H](C)NC(C)=O)CSCCC(=O)N6CN7CN(C6)C(=O)CCSC[C@H](NC(=O)[C@H](Cc6ccc(O)cc6)NC(=O)[C@H](CCC(N)=O)NC5=O)C(=O)N[C@@H](Cc5ccccc5)C(=O)N[C@@H](C)C(=O)N[C@@H](CC(=O)O)C(=O)N5CCC[C@H]5C(=O)N[C@@H](Cc5ccc(O)cc5)C(=O)N[C@@H](CCCC)C(=O)N[C@H](C(=O)N[C@@H](C)C(N)=O)CSCCC7=O)c4CCC31)C(=O)N[C@@H](CCC(N)=O)C(=O)N[C@@H](Cc1ccc(O)cc1)C(=O)N2` (stereo partly shown) [BCY8102], the “Average Fold EC50 Improvement relative to CD137L” value is recorded as 41.27 and the “Average Relative Fold Induction relative to CD137L” value was found to be 0.91.
The corresponding values for `CCCC[C@@H]1NC(=O)[C@H](Cc2ccc(O)cc2)NC(=O)[C@@H]2CCCN2C(=O)[C@H](CC(=O)O)NC(=O)[C@H](C)NC(=O)[C@H](Cc2ccccc2)NC(=O)[C@@H]2CSCCC(=O)N3CN(CN(C3)C(=O)CCSC[C@@H](C(=O)N[C@@H](C)C(N)=O)NC1=O)C(=O)CCSC[C@H](NC(=O)[C@H](C)NC(C)=O)C(=O)N[C@@H]([C@@H](C)CC)C(=O)N[C@@H](CCC(=O)O)C(=O)N[C@@H](CCC(=O)O)C(=O)N[C@H](CCCCNC(=O)OCC1C3CCc4nnn(CCOCCOCCOCCOCCOCCOCCOCCOCCOCCOCCOCCOCCOCCOCCOCCOCCOCCOCCOCCOCCOCCOCCOCCNC(=O)CCOCCN(CCOCCC(=O)NCCOCCOCCOCCOCCOCCOCCOCCOCCOCCOCCOCCOCCOCCOCCOCCOCCOCCOCCOCCOCCOCCOCCOCCn5nnc6c5CCC5C(CC6)C5COC(=O)NCCCC[C@H]5NC(=O)[C@H](CCC(=O)O)NC(=O)[C@H](CCC(=O)O)NC(=O)[C@H]([C@@H](C)CC)NC(=O)[C@@H](NC(=O)[C@H](C)NC(C)=O)CSCCC(=O)N6CN7CN(C6)C(=O)CCSC[C@H](NC(=O)[C@H](Cc6ccc(O)cc6)NC(=O)[C@H](CCC(N)=O)NC5=O)C(=O)N[C@@H](Cc5ccccc5)C(=O)N[C@@H](C)C(=O)N[C@@H](CC(=O)O)C(=O)N5CCC[C@H]5C(=O)N[C@@H](Cc5ccc(O)cc5)C(=O)N[C@@H](CCCC)C(=O)N[C@H](C(=O)N[C@@H](C)C(N)=O)CSCCC7=O)CCOCCC(=O)NCCOCCOCCOCCOCCOCCOCCOCCOCCOCCOCCOCCOCCOCCOCCOCCOCCOCCOCCOCCOCCOCCOCCOCCn5nnc6c5CCC5C(CC6)C5COC(=O)NCCCC[C@H]5NC(=O)[C@H](CCC(=O)O)NC(=O)[C@H](CCC(=O)O)NC(=O)[C@H]([C@@H](C)CC)NC(=O)[C@@H](NC(=O)[C@H](C)NC(C)=O)CSCCC(=O)N6CN7CN(C6)C(=O)CCSC[C@H](NC(=O)[C@H](Cc6ccc(O)cc6)NC(=O)[C@H](CCC(N)=O)NC5=O)C(=O)N[C@@H](Cc5ccccc5)C(=O)N[C@@H](C)C(=O)N[C@@H](CC(=O)O)C(=O)N5CCC[C@H]5C(=O)N[C@@H](Cc5ccc(O)cc5)C(=O)N[C@@H](CCCC)C(=O)N[C@H](C(=O)N[C@@H](C)C(N)=O)CSCCC7=O)c4CCC31)C(=O)N[C@@H](CCC(N)=O)C(=O)N[C@@H](Cc1ccc(O)cc1)C(=O)N2` (stereo partly shown) [BCY8103] are 188.34 and 0.91.
Regarding `CCCC[C@@H]1NC(=O)[C@H](Cc2ccc(O)cc2)NC(=O)[C@@H]2CCCN2C(=O)[C@H](CC(=O)O)NC(=O)[C@H](C)NC(=O)[C@H](Cc2ccccc2)NC(=O)[C@@H]2CSCCC(=O)N3CN(CN(C3)C(=O)CCSC[C@@H](C(=O)N[C@@H](C)C(N)=O)NC1=O)C(=O)CCSC[C@H](NC(=O)[C@H](C)NC(C)=O)C(=O)N[C@@H]([C@@H](C)CC)C(=O)N[C@@H](CCC(=O)O)C(=O)N[C@@H](CCC(=O)O)C(=O)N[C@H](CCCCNC(=O)OCC1C3CCc4nnn(CCOCCOCCOCCOCCOCCOCCOCCOCCOCCOCCNC(=O)CCOCC(COCCC(=O)NCCOCCOCCOCCOCCOCCOCCOCCOCCOCCOCCn5nnc6c5CCC5C(CC6)C5COC(=O)NCCCC[C@H]5NC(=O)[C@H](CCC(=O)O)NC(=O)[C@H](CCC(=O)O)NC(=O)[C@H]([C@@H](C)CC)NC(=O)[C@@H](NC(=O)[C@H](C)NC(C)=O)CSCCC(=O)N6CN7CN(C6)C(=O)CCSC[C@H](NC(=O)[C@H](Cc6ccc(O)cc6)NC(=O)[C@H](CCC(N)=O)NC5=O)C(=O)N[C@@H](Cc5ccccc5)C(=O)N[C@@H](C)C(=O)N[C@@H](CC(=O)O)C(=O)N5CCC[C@H]5C(=O)N[C@@H](Cc5ccc(O)cc5)C(=O)N[C@@H](CCCC)C(=O)N[C@H](C(=O)N[C@@H](C)C(N)=O)CSCCC7=O)(COCCC(=O)NCCOCCOCCOCCOCCOCCOCCOCCOCCOCCOCCn5nnc6c5CCC5C(CC6)C5COC(=O)NCCCC[C@H]5NC(=O)[C@H](CCC(=O)O)NC(=O)[C@H](CCC(=O)O)NC(=O)[C@H]([C@@H](C)CC)NC(=O)[C@@H](NC(=O)[C@H](C)NC(C)=O)CSCCC(=O)N6CN7CN(C6)C(=O)CCSC[C@H](NC(=O)[C@H](Cc6ccc(O)cc6)NC(=O)[C@H](CCC(N)=O)NC5=O)C(=O)N[C@@H](Cc5ccccc5)C(=O)N[C@@H](C)C(=O)N[C@@H](CC(=O)O)C(=O)N5CCC[C@H]5C(=O)N[C@@H](Cc5ccc(O)cc5)C(=O)N[C@@H](CCCC)C(=O)N[C@H](C(=O)N[C@@H](C)C(N)=O)CSCCC7=O)COCCC(=O)NCCOCCOCCOCCOCCOCCOCCOCCOCCOCCOCCn5nnc6c5CCC5C(CC6)C5COC(=O)NCCCC[C@H]5NC(=O)[C@H](CCC(=O)O)NC(=O)[C@H](CCC(=O)O)NC(=O)[C@H]([C@@H](C)CC)NC(=O)[C@@H](NC(=O)[C@H](C)NC(C)=O)CSCCC(=O)N6CN7CN(C6)C(=O)CCSC[C@H](NC(=O)[C@H](Cc6ccc(O)cc6)NC(=O)[C@H](CCC(N)=O)NC5=O)C(=O)N[C@@H](Cc5ccccc5)C(=O)N[C@@H](C)C(=O)N[C@@H](CC(=O)O)C(=O)N5CCC[C@H]5C(=O)N[C@@H](Cc5ccc(O)cc5)C(=O)N[C@@H](CCCC)C(=O)N[C@H](C(=O)N[C@@H](C)C(N)=O)CSCCC7=O)c4CCC31)C(=O)N[C@@H](CCC(N)=O)C(=O)N[C@@H](Cc1ccc(O)cc1)C(=O)N2` (stereo partly shown) [BCY8104], the “Average Fold EC50 Improvement relative to CD137L” value is given as 103.27 and the “Average Relative Fold Induction relative to CD137L” value is listed as 1.65.
